Literature values as cited in US20200093783A1, “Preparation and Anti-HepG2 Application for Urushiol-Based pH Response Micelle Encapsulating Paclitaxel” (Nanjing Zhongsen Biological Technology Co., Ltd., priority 2019, published 2020).

Tested on: most of tumor cells
Conditions: background statement

urushiol
IC50 (50% inhibiting concentration): 4 µg/mL
